Measured values taken from US4885299A, “2-(2,3-dihydro-2-oxo-3-benzofuranyl)acetic acids antihypoxic and nootropic effects having” (ADIR Et Cie, priority 1987, dated 1989).
Counter-ions that a name gives are not always drawn. Like-named read-outs stand apart in the source and are kept apart here.

Experiments:
[1] = test system: brain energy-rich compounds (ATP, ADP, AMP); experiment: Acute hypoxia in rats; protection of tissue energy-rich compounds in brain (ATP, energy content); assay type: in vivo, Male Fischer 344 rats (Charles River); conditions: for % inhibition of the effects of hypoxia, ATP / % inhibition of the effects of hypoxia, EC (tissue energy content): 3% oxygen for 2 minutes; for antihypoxic effect / protection in words: 300 mg/kg
Experimental: (§1) The compounds of the present invention were tested in respect of their capacity to prolong the survival of cerebral tissue during acute hypoxia in mice, or to maintain the level of tissue energy-rich compounds in rats subjected to a fall in the oxygen supply [Pharmacology of Cerebral Ischemia, p. 334-339 (1968) Elsevier Science Publishers B.V., J. Krieglstein ed.]. […] Forsch. Drug. Res. (1986), 36 II No. 9, p. 1314-1320].
Whereas the control rats breath a gaseous mixture containing 21% of oxygen and 79% of nitrogen, the rats subjected to hypoxia breath a mixture of 3% oxygen and 97% nitrogen for 2 minutes.
At the end of the hypoxic period, the animals are rapidly sacrificed by total immersion in liquid nitrogen. The frozen brain is removed and the energy-rich compounds (ATP, ADP, AMP) are extracted and assayed by the luciferin luminescence method.
The tissue energy content (EC) is calculated according to ATKINSON's formula: [formula]

[2] = test system: Acute hypoxia in mice; survival of the brain; experiment: Acute hypoxia in mice (hypobaric); brain survival time to final respiratory gasp; assay type: in vivo, Male CD1 mice (Charles River)
Experimental: as §1
The survival of the brain is assessed by measuring the time at which the final respiratory gasp is observed.
The survival time of a treated batch is compared with that of a control batch receiving only the solvent.
The percentage increase in the survival time after the animals are treated with the compounds of the invention is shown in Table II.

[3] = 100 mg/kg I.P., 30 minutes before hypoxia, mice
[4] = Mus musculus, ip, 30 mg/kg I.P., 30 minutes before hypoxia, mice, read-out: Percentage increase in the survival time
[5] = Mus musculus, ip, 100 mg/kg I.P., 30 minutes before hypoxia, mice, read-out: Percentage increase in the survival time
[6] = Mus musculus, ip, read-out: Percentage increase in the survival time
[7] = 100 mg/kg I.P., listed as pyritinol

Compound | % inhibition of the effects of hypoxia, ATP ([1]; 30 mg/kg I.P.) | % inhibition of the effects of hypoxia, EC (tissue energy content) ([1]; 30 mg/kg I.P.) | Percentage increase in the survival time [2, 3] | % inhibition of the effects of hypoxia, ATP ([1]; 100 mg/kg I.P.) | % inhibition of the effects of hypoxia, EC (tissue energy content) ([1]; 100 mg/kg I.P.) | change in vivo at 30 mg/kg [2, 4] | change in vivo at 100 mg/kg [2, 5] | % inhibition of the effects of hypoxia, ATP ([1]; 300 mg/kg I.P.) | % inhibition of the effects of hypoxia, EC (tissue energy content) ([1]; 300 mg/kg I.P.) | antihypoxic effect / protection in words [1] | also measured
O=C(CC1(c2ccccc2)C(=O)Oc2ccc(Cl)cc21)N1CCN(c2ccc(C(F)(F)F)cn2)CC1 (centres unmarked) [Example 9, 2-(5-Chloro-2,3-dihydro-2-oxo-3-phenyl-3-benzofuranyl)-1-[4-(5-trifluoromethyl-2-pyridyl)piperazinyl]-1-oxoethane] | 65.6% | 60.1% | greater than 180% |  |  |  |  |  |  |  | Percentage increase in the survival time ([2]; 3 mg/kg I.P., 30 minutes before hypoxia, mice): +65%; Percentage increase in the survival time ([2]; 10 mg/kg I.P., 30 minutes before hypoxia, mice): +82%; Percentage increase in the survival time ([2]; 30 mg/kg I.P., 30 minutes before hypoxia, mice): +77%; Percentage increase in the survival time ([2]; 100 mg/kg I.P., 30 minutes before hypoxia, mice, listed as Ex. 9): +183%
O=C(CC1(c2ccccc2)C(=O)Oc2ccc(Cl)cc21)N1CCN(Cc2ccc3c(c2)OCO3)CC1 (centres unmarked) [Example 16, 2-(5-Chloro-2,3-dihydro-2-oxo-3-phenyl-3-benzofuranyl)-1-[4-(3,4-methylenedioxybenzyl)piperazinyl]-1-oxoethane] |  |  |  | 77.5% | 76.3% | 64% | 100% |  |  |  | Percentage increase in the survival time ([2]; 100 mg/kg I.P., 30 minutes before hypoxia, mice, listed as Ex. 16): +100%
O=C(CC1(c2ccccc2)C(=O)Oc2ccc(F)cc21)N1CCN(Cc2ccc3c(c2)OCO3)CC1 (centres unmarked) [Example 20, 2-(5-Fluoro-2,3-dihydro-2-oxo-3-phenyl-3-benzofuranyl)-1-[4-(3,4-methylenedioxybenzyl)piperazinyl]-1-oxoethane hydrochloride] | 56.9% | 61.3% |  | 70.2% | 71.5% | 104% | 100% |  |  |  | Percentage increase in the survival time ([2]; 100 mg/kg I.P., 30 minutes before hypoxia, mice, listed as Ex. 20, hydrochloride): +100%; change in vivo at 10 mg/kg ([2]; Mus musculus, ip, 10 mg/kg I.P., 30 minutes before hypoxia, mice, read-out: Percentage increase in the survival time): 52%; change in vivo at 300 mg/kg ([2]; Mus musculus, ip, 300 mg/kg I.P., 30 minutes before hypoxia, mice, read-out: Percentage increase in the survival time): 128%
CN(C)CCOC(=O)COc1ccc(Cl)cc1 [Meclofenoxate, meclofenoxate, reference compound] |  |  | +22% |  |  |  |  | 59.7% | 69.6% |  | change in vivo at 30 mg/kg [2, 6]: 4%; change in vivo at 100 mg/kg [2, 6]: 22%; change in vivo at 600 mg/kg [2, 6]: 190%
NC(=O)CN1CCCC1=O [Piracetam, piracetam, reference compound] |  |  | +11% |  |  |  | 11% |  | 1.6% | only very little protection | change in vivo at 1000 mg/kg ([2]; Mus musculus, ip, 1000 mg/kg I.P., 30 minutes before hypoxia, mice, read-out: Percentage increase in the survival time): 25%
Cc1ncc(CSSCc2cnc(C)c(O)c2CO)c(CO)c1O [Pyritinol, pyritinol] | 11.1% | 16.6% | +27% | 23.3% | 35.2% | 13% | 27% | 90.4% | 85.4% | distinct antihypoxic effect | antihypoxic effect in words ([1]; 100 mg/kg): only a more modest effect; % inhibition of the effects of hypoxia, ATP [1, 7]: 23%; % inhibition of the effects of hypoxia, EC (tissue energy content) [1, 7]: 35%; significance of the protection (brain survival time) ([2]; 100 mg/kg, mice): significant; change in vivo at 200 mg/kg ([2]; Mus musculus, ip, 200 mg/kg I.P., 30 minutes before hypoxia, mice, read-out: Percentage increase in the survival time): 77%
